Laboratory results published in patent publication US20170184695A1, “IMAGING OF CREATINE KINASE ENZYME EXPRESSION IN CANCEROUS TISSUES” (Sidra Medical and Research Center, priority 2014, published 2017).

Test system: CK enzyme expressed in the tumor
Test: In vivo CEST imaging of creatine kinase expression in tumor after tail vein injection of PCr
Conditions: 60 minutes post infusion (tail vein injection of PCr) vs base line CEST map, FIG. 3
Protocol: In certain embodiments, the radio frequency (RF) pulse can be provided at different frequency offsets. In certain embodiments, to detect the conversion of phosphocreatine to creatine, an RF pulse was applied at a frequency offset of about 1.8 ppm for a period of about 1 to about 3 seconds.
“b” is the base line CEST map from the same slice. “c” is a CEST map of the same slice at 60 minutes following tail vein injection of PCr.

## CN(CC(=O)O)C(=N)NP(=O)(O)O [PCr, phosphocreatine]
  increase in CEST contrast: about 11%
